{"source": "ChEMBL document CHEMBL1201862", "about": "“PubChem BioAssay data set” (2004)", "assay_in_all_cases": "inhibition of tumour cell growth, NCI panel, 48 h", "key": {"HOP-92": {"tested_on": "HOP-92"}, "MOLT-4": {"tested_on": "MOLT-4"}, "OVCAR-5": {"tested_on": "OVCAR-5"}, "SF-539": {"tested_on": "SF-539"}, "MDA-MB-435": {"tested_on": "MDA-MB-435"}, "MDA-MB-231": {"tested_on": "MDA-MB-231"}, "OVCAR-3": {"tested_on": "OVCAR-3"}, "RXF 393": {"tested_on": "RXF 393"}, "LOX IMVI": {"tested_on": "LOX IMVI"}, "HCT-116": {"tested_on": "HCT-116"}, "Malme-3M": {"tested_on": "Malme-3M"}, "OVCAR-4": {"tested_on": "OVCAR-4"}, "SR": {"tested_on": "SR"}, "T47D": {"tested_on": "T47D"}, "SNB-75": {"tested_on": "SNB-75"}, "HOP-62": {"tested_on": "HOP-62"}, "OVCAR-8": {"tested_on": "OVCAR-8"}, "IGROV-1": {"tested_on": "IGROV-1"}, "786-0": {"tested_on": "786-0"}, "KM12": {"tested_on": "KM12"}}, "note": "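Values below derive from 48-hour exposures of cells grown in 96-well plates, with endpoints linearly interpolated between the two concentrations bracketing the appropriate inhibition level. At the GI50, growth is halved.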 Active and inactive are the calls of the source. Cut-off read from the data, not from the text of the source: active = GI50 up to about 1.1 µM and inactive = higher."}
{"molecule": "CCN1CCC(O)(/C=C/c2ccccc2C)C(C(=O)/C=C/c2ccccc2C)C1", "note": "(configuration not stated)", "values": [{"measurement": "GI50", "setting": "HOP-92", "result": "1.34 µM (inactive)"}, {"measurement": "GI50", "setting": "MOLT-4", "result": "2.38 µM (inactive)"}, {"measurement": "GI50", "setting": "OVCAR-5", "result": "1.97 µM (inactive)"}, {"measurement": "GI50", "setting": "SF-539", "result": "2.31 µM (inactive)"}, {"measurement": "GI50", "setting": "MDA-MB-435", "result": "2.38 µM (inactive)"}, {"measurement": "GI50", "setting": "MDA-MB-231", "result": "2.55 µM (inactive)"}, {"measurement": "GI50", "setting": "OVCAR-3", "result": "2.25 µM (inactive)"}, {"measurement": "GI50", "setting": "RXF 393", "result": "1.92 µM (inactive)"}, {"measurement": "GI50", "setting": "LOX IMVI", "result": "1.68 µM (inactive)"}, {"measurement": "GI50", "setting": "HCT-116", "result": "1.78 µM (inactive)"}, {"measurement": "GI50", "setting": "Malme-3M", "result": "4.08 µM (inactive)"}, {"measurement": "GI50", "setting": "OVCAR-4", "result": "3.67 µM (inactive)"}, {"measurement": "GI50", "setting": "SR", "result": "2.72 µM (inactive)"}, {"measurement": "GI50", "setting": "T47D", "result": "1.85 µM (inactive)"}, {"measurement": "GI50", "setting": "SNB-75", "result": "4.92 µM (inactive)"}, {"measurement": "GI50", "setting": "HOP-62", "result": "1.94 µM (inactive)"}, {"measurement": "GI50", "setting": "OVCAR-8", "result": "2.71 µM (inactive)"}, {"measurement": "GI50", "setting": "IGROV-1", "result": "3.62 µM (inactive)"}]}
{"molecule": "COc1cc(C2c3cc4c(cc3OC(N3CCCCC3)C2C)OCO4)cc(OC)c1OC", "note": "(configuration not stated)", "values": [{"measurement": "GI50", "setting": "HOP-92", "result": "10.4 µM (inactive)"}, {"measurement": "GI50", "setting": "MOLT-4", "result": "3.9 µM (inactive)"}, {"measurement": "GI50", "setting": "OVCAR-5", "result": "12.7 µM (inactive)"}, {"measurement": "GI50", "setting": "SF-539", "result": "2.2 µM (inactive)"}, {"measurement": "GI50", "setting": "MDA-MB-435", "result": "0.67 µM (active)"}, {"measurement": "GI50", "setting": "MDA-MB-231", "result": "4.98 µM (inactive)"}, {"measurement": "GI50", "setting": "OVCAR-3", "result": "1.9 µM (inactive)"}, {"measurement": "GI50", "setting": "RXF 393", "result": "2.15 µM (inactive)"}, {"measurement": "GI50", "setting": "LOX IMVI", "result": "4.85 µM (inactive)"}, {"measurement": "GI50", "setting": "786-0", "result": "3.42 µM (inactive)"}, {"measurement": "GI50", "setting": "HCT-116", "result": "3.37 µM (inactive)"}, {"measurement": "GI50", "setting": "Malme-3M", "result": "5.83 µM (inactive)"}, {"measurement": "GI50", "setting": "OVCAR-4", "result": "13 µM (inactive)"}, {"measurement": "GI50", "setting": "SR", "result": "3.27 µM (inactive)"}, {"measurement": "GI50", "setting": "T47D", "result": "4.23 µM (inactive)"}, {"measurement": "GI50", "setting": "SNB-75", "result": "4.47 µM (inactive)"}, {"measurement": "GI50", "setting": "KM12", "result": "2.88 µM (inactive)"}, {"measurement": "GI50", "setting": "HOP-62", "result": "2.85 µM (inactive)"}, {"measurement": "GI50", "setting": "OVCAR-8", "result": "5.11 µM (inactive)"}, {"measurement": "GI50", "setting": "IGROV-1", "result": "4.62 µM (inactive)"}]}
{"molecule": "COC(OC)[C@@H]1OC[C@@H](O)[C@@H]1n1cnc2c(N)ncnc21", "values": [{"measurement": "GI50", "setting": "HOP-92", "result": "> 100 µM (inactive)"}, {"measurement": "GI50", "setting": "MOLT-4", "result": "> 100 µM (inactive)"}, {"measurement": "GI50", "setting": "OVCAR-5", "result": "> 100 µM (inactive)"}, {"measurement": "GI50", "setting": "SF-539", "result": "> 100 µM (inactive)"}, {"measurement": "GI50", "setting": "MDA-MB-435", "result": "> 100 µM (inactive)"}, {"measurement": "GI50", "setting": "MDA-MB-231", "result": "> 100 µM (inactive)"}, {"measurement": "GI50", "setting": "OVCAR-3", "result": "> 100 µM (inactive)"}, {"measurement": "GI50", "setting": "RXF 393", "result": "> 100 µM (inactive)"}, {"measurement": "GI50", "setting": "LOX IMVI", "result": "> 100 µM (inactive)"}, {"measurement": "GI50", "setting": "786-0", "result": "> 100 µM (inactive)"}, {"measurement": "GI50", "setting": "HCT-116", "result": "> 100 µM (inactive)"}, {"measurement": "GI50", "setting": "Malme-3M", "result": "> 100 µM (inactive)"}, {"measurement": "GI50", "setting": "OVCAR-4", "result": "> 100 µM (inactive)"}, {"measurement": "GI50", "setting": "SR", "result": "> 100 µM (inactive)"}, {"measurement": "GI50", "setting": "T47D", "result": "> 100 µM (inactive)"}, {"measurement": "GI50", "setting": "SNB-75", "result": "> 100 µM (inactive)"}, {"measurement": "GI50", "setting": "KM12", "result": "> 100 µM (inactive)"}, {"measurement": "GI50", "setting": "HOP-62", "result": "> 100 µM (inactive)"}, {"measurement": "GI50", "setting": "IGROV-1", "result": "> 100 µM (inactive)"}]}
{"molecule": "COc1cc2cc(C(=O)N3CC(CCl)c4c3cc([N+](C)(C)Cc3ccc([N+](=O)[O-])n3C)c3ccccc43)[nH]c2c(OC)c1OC", "note": "(configuration not stated)", "values": [{"measurement": "GI50", "setting": "HOP-92", "result": "0.619 µM (active)"}, {"measurement": "GI50", "setting": "MOLT-4", "result": "1.93 µM (inactive)"}, {"measurement": "GI50", "setting": "OVCAR-5", "result": "6.05 µM (inactive)"}, {"measurement": "GI50", "setting": "SF-539", "result": "2.02 µM (inactive)"}, {"measurement": "GI50", "setting": "MDA-MB-435", "result": "3.79 µM (inactive)"}, {"measurement": "GI50", "setting": "MDA-MB-231", "result": "2.42 µM (inactive)"}, {"measurement": "GI50", "setting": "OVCAR-3", "result": "4.06 µM (inactive)"}, {"measurement": "GI50", "setting": "RXF 393", "result": "0.0107 µM (active)"}, {"measurement": "GI50", "setting": "LOX IMVI", "result": "2.31 µM (inactive)"}, {"measurement": "GI50", "setting": "786-0", "result": "1.33 µM (inactive)"}, {"measurement": "GI50", "setting": "HCT-116", "result": "1.48 µM (inactive)"}, {"measurement": "GI50", "setting": "Malme-3M", "result": "3.79 µM (inactive)"}, {"measurement": "GI50", "setting": "OVCAR-4", "result": "1.88 µM (inactive)"}, {"measurement": "GI50", "setting": "SR", "result": "< 0.0385 µM (active)"}, {"measurement": "GI50", "setting": "T47D", "result": "3.23 µM (inactive)"}, {"measurement": "GI50", "setting": "SNB-75", "result": "2.35 µM (inactive)"}, {"measurement": "GI50", "setting": "KM12", "result": "2.14 µM (inactive)"}, {"measurement": "GI50", "setting": "HOP-62", "result": "4.02 µM (inactive)"}, {"measurement": "GI50", "setting": "OVCAR-8", "result": "1.38 µM (inactive)"}, {"measurement": "GI50", "setting": "IGROV-1", "result": "1.58 µM (inactive)"}]}
{"molecule": "O=C(O)C(C(=O)O)P(=S)(S)c1ccccc1", "note": "(configuration not stated)", "values": [{"measurement": "GI50", "setting": "HOP-92", "result": "> 100 µM (inactive)"}, {"measurement": "GI50", "setting": "MOLT-4", "result": "> 30.4 µM (inactive)"}, {"measurement": "GI50", "setting": "OVCAR-5", "result": "> 100 µM (inactive)"}, {"measurement": "GI50", "setting": "SF-539", "result": "> 100 µM (inactive)"}, {"measurement": "GI50", "setting": "MDA-MB-435", "result": "> 100 µM (inactive)"}, {"measurement": "GI50", "setting": "MDA-MB-231", "result": "> 100 µM (inactive)"}, {"measurement": "GI50", "setting": "OVCAR-3", "result": "> 100 µM (inactive)"}, {"measurement": "GI50", "setting": "RXF 393", "result": "> 100 µM (inactive)"}, {"measurement": "GI50", "setting": "LOX IMVI", "result": "> 100 µM (inactive)"}, {"measurement": "GI50", "setting": "786-0", "result": "> 100 µM (inactive)"}, {"measurement": "GI50", "setting": "HCT-116", "result": "> 100 µM (inactive)"}, {"measurement": "GI50", "setting": "Malme-3M", "result": "> 100 µM (inactive)"}, {"measurement": "GI50", "setting": "OVCAR-4", "result": "> 100 µM (inactive)"}, {"measurement": "GI50", "setting": "SR", "result": "> 73.5 µM (inactive)"}, {"measurement": "GI50", "setting": "T47D", "result": "> 100 µM (inactive)"}, {"measurement": "GI50", "setting": "SNB-75", "result": "> 100 µM (inactive)"}, {"measurement": "GI50", "setting": "KM12", "result": "> 100 µM (inactive)"}, {"measurement": "GI50", "setting": "HOP-62", "result": "> 100 µM (inactive)"}, {"measurement": "GI50", "setting": "OVCAR-8", "result": "> 100 µM (inactive)"}, {"measurement": "GI50", "setting": "IGROV-1", "result": "> 100 µM (inactive)"}]}
